Measured values published in patent US10538555B2, “Macrocyclic inhibitors of the PD-1/PD-L1 and CD80(B7-1)/PD-L1 protein/protein interactions” (BRISTOL-MYERS SQUIBB COMPANY, priority 2014, dated 2020).
Where a SMILES comes first, the peptide text is derived from it. Bridges are numbered along the chain shown (N, C = ends). [ ]: non-standard residue; d: D form. Hyp = O=C(O)[C@@H]1C[C@@H](O)CN1; NMeNle = CCCC[C@H](NC)C(=O)O; NMeA = CN[C@@H](C)C(=O)O; Dab = NCC[C@H](N)C(=O)O; Dap = NC[C@H](N)C(=O)O

molecular target: T1, Human PD-L1/PD-1 (Homo sapiens, UniProt Q9NZQ7); assay: HTRF Human PD-L1/PD-1 binding assay (PD-1-Ig/PD-L1-His); details: PD-L1-His 10 nM, PD-1-Ig 20 nM; class symbol; read-out: HTRF Human PD-L1/PD-1 Binding Assay IC50 Range
T1 construct: TVMV protease cleavage site (C); made in house; host or cells: HEK293T cells
How it was run: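 Truncated Fc-fused human PD-1 (aa 25-167) at 20 nM and His-tagged PD-L1 (aa 18-239) at 10 nM final are used, with peptides preincubated 15 min with PD-L1. Detection uses europium-cryptate anti-Ig and APC anti-His antibodies; 665/620 nm ratio.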

T1 sequence (Q9NZQ7 with tags, fused parts or gaps): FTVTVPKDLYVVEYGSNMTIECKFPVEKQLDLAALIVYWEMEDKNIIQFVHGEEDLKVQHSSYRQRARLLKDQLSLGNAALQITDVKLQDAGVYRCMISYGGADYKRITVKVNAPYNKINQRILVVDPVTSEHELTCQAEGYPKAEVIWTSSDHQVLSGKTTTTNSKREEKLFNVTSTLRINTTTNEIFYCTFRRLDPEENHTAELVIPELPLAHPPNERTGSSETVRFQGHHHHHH

IC50, 1 to 9.9 nM:
CCCC[C@H]1C(=O)N(C)[C@@H](CCCC)C(=O)N[C@@H](CCC(=O)O)C(=O)N[C@H](C(=O)NCC(N)=O)CSCC(=O)N[C@@H](Cc2ccc(OC)cc2)C(=O)N(C)[C@@H](C)C(=O)N[C@@H](CCN)C(=O)N2CCC[C@H]2C(=O)N[C@@H](CN)C(=O)N[C@@H](CCC(=O)O)C(=O)N2C[C@H](O)C[C@H]2C(=O)N[C@@H](Cc2c[nH]c3ccccc23)C(=O)N[C@@H](CCN)C(=O)N[C@@H](Cc2c[nH]c3ccccc23)C(=O)N1C [Example 7112] ({CH2CO}-Y(Me)[NMeA][Dab]P[Dap]E[Hyp]W[Dab]W[NMeNle][NMeNle]ECG-NH2; thioether N-14)
CCCC[C@H]1C(=O)N(C)[C@@H](CCCC)C(=O)N[C@@H](CCC(=O)O)C(=O)N[C@H](C(=O)NCC(N)=O)CSCC(=O)N[C@@H](Cc2ccc(OC)cc2)C(=O)N(C)[C@@H](C)C(=O)N[C@@H](CC(=O)O)C(=O)N2CCC[C@H]2C(=O)N[C@@H](CN)C(=O)N[C@@H](CCC(=O)O)C(=O)N2C[C@H](O)C[C@H]2C(=O)N[C@@H](Cc2c[nH]c3ccccc23)C(=O)N[C@@H](CCN)C(=O)N[C@@H](Cc2c[nH]c3ccccc23)C(=O)N1C [Example 7113] ({CH2CO}-Y(Me)[NMeA]DP[Dap]E[Hyp]W[Dab]W[NMeNle][NMeNle]ECG-NH2; thioether N-14)
CCCC[C@H]1C(=O)N(C)[C@@H](CCCC)C(=O)N[C@@H](CCC(=O)O)C(=O)N[C@H](C(=O)NCC(N)=O)CSCC(=O)N[C@@H](Cc2ccc(OC)cc2)C(=O)N(C)[C@@H](C)C(=O)N[C@@H](CC(N)=O)C(=O)N2CCC[C@H]2C(=O)N[C@@H](Cc2cnc[nH]2)C(=O)N[C@@H](CCCCN)C(=O)N2C[C@H](O)C[C@H]2C(=O)N[C@@H](Cc2c[nH]c3ccccc23)C(=O)N[C@@H](CCN)C(=O)N[C@@H](Cc2c[nH]c3ccccc23)C(=O)N1C [Example 7118] ({CH2CO}-Y(Me)[NMeA]NPHK[Hyp]W[Dab]W[NMeNle][NMeNle]ECG-NH2; thioether N-14)
CCCC[C@H]1C(=O)N(C)[C@@H](CCCC)C(=O)N[C@@H](CCC(=O)O)C(=O)N[C@H](C(=O)NCC(N)=O)CSCC(=O)N[C@@H](Cc2ccc(OC)cc2)C(=O)N(C)[C@@H](C)C(=O)N[C@@H](CC(=O)O)C(=O)N2CCC[C@H]2C(=O)N[C@@H](Cc2cnc[nH]2)C(=O)N[C@@H](CCCCN)C(=O)N2C[C@H](O)C[C@H]2C(=O)N[C@@H](Cc2c[nH]c3ccccc23)C(=O)N[C@@H](CCN)C(=O)N[C@@H](Cc2c[nH]c3ccccc23)C(=O)N1C [Example 7119] ({CH2CO}-Y(Me)[NMeA]DPHK[Hyp]W[Dab]W[NMeNle][NMeNle]ECG-NH2; thioether N-14)
CCCC[C@H]1C(=O)N(C)[C@@H](CCCC)C(=O)N[C@@H](CCC(=O)O)C(=O)N[C@H](C(=O)NCC(N)=O)CSCC(=O)N[C@@H](Cc2ccc(OC)cc2)C(=O)N(C)[C@@H](C)C(=O)N[C@@H](CCN)C(=O)N2CCC[C@H]2C(=O)N[C@@H](Cc2cnc[nH]2)C(=O)N[C@@H](CCCCN)C(=O)N2C[C@H](O)C[C@H]2C(=O)N[C@@H](Cc2c[nH]c3ccccc23)C(=O)N[C@@H](CCN)C(=O)N[C@@H](Cc2c[nH]c3ccccc23)C(=O)N1C [Example 7120] ({CH2CO}-Y(Me)[NMeA][Dab]PHK[Hyp]W[Dab]W[NMeNle][NMeNle]ECG-NH2; thioether N-14)
CCCC[C@H]1C(=O)N(C)[C@@H](CCCC)C(=O)N[C@@H](CCC(=O)O)C(=O)N[C@H](C(=O)NCC(N)=O)CSCC(=O)N[C@@H](Cc2ccc(OC)cc2)C(=O)N(C)[C@@H](C)C(=O)N[C@@H](CC(N)=O)C(=O)N2CCC[C@H]2C(=O)N[C@@H](CN)C(=O)N[C@@H](CCCCN)C(=O)N2C[C@H](O)C[C@H]2C(=O)N[C@@H](Cc2c[nH]c3ccccc23)C(=O)N[C@@H](CCN)C(=O)N[C@@H](Cc2c[nH]c3ccccc23)C(=O)N1C [Example 7121] ({CH2CO}-Y(Me)[NMeA]NP[Dap]K[Hyp]W[Dab]W[NMeNle][NMeNle]ECG-NH2; thioether N-14)
CCCC[C@H]1C(=O)N(C)[C@@H](CCCC)C(=O)N[C@@H](CCC(=O)O)C(=O)N[C@H](C(=O)NCC(N)=O)CSCC(=O)N[C@@H](Cc2ccc(OC)cc2)C(=O)N(C)[C@@H](C)C(=O)N[C@@H](CC(=O)O)C(=O)N2CCC[C@H]2C(=O)N[C@@H](CN)C(=O)N[C@@H](CCCCN)C(=O)N2C[C@H](O)C[C@H]2C(=O)N[C@@H](Cc2c[nH]c3ccccc23)C(=O)N[C@@H](CCN)C(=O)N[C@@H](Cc2c[nH]c3ccccc23)C(=O)N1C [Example 7122] ({CH2CO}-Y(Me)[NMeA]DP[Dap]K[Hyp]W[Dab]W[NMeNle][NMeNle]ECG-NH2; thioether N-14)

IC50, 100 to 990 nM:
CCCC[C@H]1C(=O)N(C)[C@@H](CCCC)C(=O)N[C@@H](CCC(=O)O)C(=O)N[C@H](C(=O)NCC(N)=O)CSCC(=O)N[C@@H](Cc2ccc(OC)cc2)C(=O)N(C)[C@@H](C)C(=O)N[C@@H](CCN)C(=O)N2CCC[C@H]2C(=O)N[C@@H](CN)C(=O)N[C@@H](CCC(=O)O)C(=O)N2C[C@H](O)C[C@H]2C(=O)N[C@@H](Cc2c[nH]c3ccccc23)C(=O)N[C@@H](CC(=O)O)C(=O)N[C@@H](Cc2c[nH]c3ccccc23)C(=O)N1C [Example 7114] ({CH2CO}-Y(Me)[NMeA][Dab]P[Dap]E[Hyp]WDW[NMeNle][NMeNle]ECG-NH2; thioether N-14)
CCCC[C@H]1C(=O)N(C)[C@@H](CCCC)C(=O)N[C@@H](CCC(=O)O)C(=O)N[C@H](C(=O)NCC(N)=O)CSCC(=O)N[C@@H](Cc2ccc(OC)cc2)C(=O)N(C)[C@@H](C)C(=O)N[C@@H](CC(N)=O)C(=O)N2CCC[C@H]2C(=O)N[C@@H](Cc2cnc[nH]2)C(=O)N[C@@H](CCCCN)C(=O)N2C[C@H](O)C[C@H]2C(=O)N[C@@H](Cc2c[nH]c3ccccc23)C(=O)N[C@@H](CC(=O)O)C(=O)N[C@@H](Cc2c[nH]c3ccccc23)C(=O)N1C [Example 7115] ({CH2CO}-Y(Me)[NMeA]NPHK[Hyp]WDW[NMeNle][NMeNle]ECG-NH2; thioether N-14)

IC50, 10 to 99.9 nM:
CCCC[C@H]1C(=O)N(C)[C@@H](CCCC)C(=O)N[C@@H](CCC(=O)O)C(=O)N[C@H](C(=O)NCC(N)=O)CSCC(=O)N[C@@H](Cc2ccc(OC)cc2)C(=O)N(C)[C@@H](C)C(=O)N[C@@H](CC(N)=O)C(=O)N2CCC[C@H]2C(=O)N[C@@H](CN)C(=O)N[C@@H](CCC(=O)O)C(=O)N2C[C@H](O)C[C@H]2C(=O)N[C@@H](Cc2c[nH]c3ccccc23)C(=O)N[C@@H](CC(=O)O)C(=O)N[C@@H](Cc2c[nH]c3ccccc23)C(=O)N1C [Example 7117] ({CH2CO}-Y(Me)[NMeA]NP[Dap]E[Hyp]WDW[NMeNle][NMeNle]ECG-NH2; thioether N-14)
CCCC[C@H]1C(=O)N(C)[C@@H](CCCC)C(=O)N[C@@H](CCC(=O)O)C(=O)N[C@H](C(=O)NCC(N)=O)CSCC(=O)N[C@@H](Cc2ccc(OC)cc2)C(=O)N(C)[C@@H](C)C(=O)N[C@@H](CCN)C(=O)N2CCC[C@H]2C(=O)N[C@@H](CN)C(=O)N[C@@H](CCCCN)C(=O)N2C[C@H](O)C[C@H]2C(=O)N[C@@H](Cc2c[nH]c3ccccc23)C(=O)N[C@@H](CCN)C(=O)N[C@@H](Cc2c[nH]c3ccccc23)C(=O)N1C [Example 7123] ({CH2CO}-Y(Me)[NMeA][Dab]P[Dap]K[Hyp]W[Dab]W[NMeNle][NMeNle]ECG-NH2; thioether N-14)
CCCC[C@H]1C(=O)N(C)[C@@H](CCCC)C(=O)N[C@@H](CCC(=O)O)C(=O)N[C@H](C(=O)NCC(N)=O)CSCC(=O)N[C@@H](Cc2ccc(OC)cc2)C(=O)N(C)[C@@H](C)C(=O)N[C@@H](CC(N)=O)C(=O)N2CCC[C@H]2C(=O)N[C@@H](Cc2cnc[nH]2)C(=O)N[C@@H](CCC(=O)O)C(=O)N2C[C@H](O)C[C@H]2C(=O)N[C@@H](Cc2c[nH]c3ccccc23)C(=O)N[C@@H](CC(=O)O)C(=O)N[C@@H](Cc2c[nH]c3ccccc23)C(=O)N1C [Example 7124] ({CH2CO}-Y(Me)[NMeA]NPHE[Hyp]WDW[NMeNle][NMeNle]ECG-NH2; thioether N-14)
CCCC[C@H]1C(=O)N(C)[C@@H](CCCC)C(=O)N[C@@H](CCC(=O)O)C(=O)N[C@H](C(=O)NCC(N)=O)CSCC(=O)N[C@@H](Cc2ccc(OC)cc2)C(=O)N(C)[C@@H](C)C(=O)N[C@@H](CC(=O)O)C(=O)N2CCC[C@H]2C(=O)N[C@@H](Cc2cnc[nH]2)C(=O)N[C@@H](CCC(=O)O)C(=O)N2C[C@H](O)C[C@H]2C(=O)N[C@@H](Cc2c[nH]c3ccccc23)C(=O)N[C@@H](CC(=O)O)C(=O)N[C@@H](Cc2c[nH]c3ccccc23)C(=O)N1C [Example 7125] ({CH2CO}-Y(Me)[NMeA]DPHE[Hyp]WDW[NMeNle][NMeNle]ECG-NH2; thioether N-14)

IC50, 1000 to 10000 nM:
CCCC[C@H]1C(=O)N(C)[C@@H](CCCC)C(=O)N[C@@H](CCC(=O)O)C(=O)N[C@H](C(=O)NCC(N)=O)CSCC(=O)N[C@@H](Cc2ccc(OC)cc2)C(=O)N(C)[C@@H](C)C(=O)N[C@@H](CCN)C(=O)N2CCC[C@H]2C(=O)N[C@@H](Cc2cnc[nH]2)C(=O)N[C@@H](CCCCN)C(=O)N2C[C@H](O)C[C@H]2C(=O)N[C@@H](Cc2c[nH]c3ccccc23)C(=O)N[C@@H](CC(=O)O)C(=O)N[C@@H](Cc2c[nH]c3ccccc23)C(=O)N1C [Example 7126] ({CH2CO}-Y(Me)[NMeA][Dab]PHK[Hyp]WDW[NMeNle][NMeNle]ECG-NH2; thioether N-14)

same assay, conditions: PD-L1-His 10 nM, PD-1-Ig 20 nM; read-out: HTRF Human PD-L1/PD-1 Binding Assay IC50

IC50, 1000 nM:
CCCC[C@H]1C(=O)N(C)[C@@H](CCCC)C(=O)N[C@@H](CCC(=O)O)C(=O)N[C@H](C(=O)NCC(N)=O)CSCC(=O)N[C@@H](Cc2ccc(OC)cc2)C(=O)N(C)[C@@H](C)C(=O)N[C@@H](CCN)C(=O)N2CCC[C@H]2C(=O)N[C@@H](CN)C(=O)N[C@@H](CCCCN)C(=O)N2C[C@H](O)C[C@H]2C(=O)N[C@@H](Cc2c[nH]c3ccccc23)C(=O)N[C@@H](CC(=O)O)C(=O)N[C@@H](Cc2c[nH]c3ccccc23)C(=O)N1C [Example 7116] ({CH2CO}-Y(Me)[NMeA][Dab]P[Dap]K[Hyp]WDW[NMeNle][NMeNle]ECG-NH2; thioether N-14)
